Measured values taken from the NIST ThermoML archive (doi:10.1016/j.tca.2013.05.039).
± gives the expanded uncertainty stated by the source.

Key:
[1] = Adiabatic calorimetry
[2] = Molar enthalpy of transition or fusion; details: Adiabatic calorimetry

**Q.** What does the source list for `C1CCCCC1` [cyclohexane]?
**A.** Triple point temperature ([1]; Crystal 2): 186.18 ± 0.049 K; Triple point temperature ([1]; Crystal): 279.86 ± 0.066 K; Molar enthalpy of transition or fusion ([2]; Crystal 2): 1.61 ± 0.0163 kcal/mol; Molar enthalpy of transition or fusion ([2]; Crystal): 0.642 ± 0.0129 kcal/mol
